Assay results: ChEMBL document CHEMBL1201862, “PubChem BioAssay data set” (2004)
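Briefly, cells in 96-well plates were exposed to five compound concentrations for 48 h, and endpoints were estimated by linear interpolation. Here, GI50 denotes the concentration required for 50% inhibition of growth.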 Activity calls are given as the source filed them. Cut-off read from the data, not from the text of the source: active = GI50 up to about 1.1 µM and inactive = higher.

What was measured:
Assay in all cases: DTP human tumour cell line panel, 48 h
CAKI-1 = system: CAKI-1
SF-295 = system: SF-295
NCI-H460 = system: NCI-H460
TK-10 = system: TK-10
LOX IMVI = system: LOX IMVI
NCI-H23 = system: NCI-H23
A498 = system: A498
HL-60 = system: HL-60
RXF 393 = system: RXF 393
MOLT-4 = system: MOLT-4
IGROV-1 = system: IGROV-1
NCI-H226 = system: NCI-H226
HOP-62 = system: HOP-62
UACC-62 = system: UACC-62
KM12 = system: KM12
SK-MEL-28 = system: SK-MEL-28
HCC 2998 = system: HCC 2998
NCI-H522 = system: NCI-H522

Measured: GI50

Cc1ccc(NC(=O)C(=O)C(C2C(C)CC(=O)C2CC(=O)O)[N+](=O)[O-])cc1 (configuration not stated)
inactive: CAKI-1 > 100 µM | SF-295 > 100 µM | NCI-H460 > 100 µM | TK-10 > 100 µM | LOX IMVI > 100 µM | NCI-H23 > 100 µM | A498 > 100 µM | HL-60 > 100 µM | RXF 393 > 100 µM | MOLT-4 > 100 µM | IGROV-1 > 100 µM | NCI-H226 > 100 µM | HOP-62 > 100 µM | UACC-62 > 100 µM | KM12 > 100 µM | SK-MEL-28 > 100 µM | HCC 2998 > 100 µM

CC#COP(=O)(OCC)OCC
inactive: CAKI-1 > 100 µM | SF-295 > 100 µM | NCI-H522 > 100 µM | NCI-H460 > 100 µM | TK-10 > 100 µM | LOX IMVI > 100 µM | NCI-H23 > 100 µM | A498 39.5 µM | HL-60 17.7 µM | MOLT-4 > 100 µM | IGROV-1 > 100 µM | NCI-H226 23.9 µM | HOP-62 > 100 µM | UACC-62 > 100 µM | KM12 > 100 µM | HCC 2998 > 100 µM

CCCC(=O)C(CC)/C(CCC(=O)N(Cc1ccccc1)Cc1ccccc1)=N/NC(=O)C[N+](C)(C)C (configuration not stated)
inactive: CAKI-1 > 100 µM | SF-295 > 100 µM | NCI-H522 > 100 µM | NCI-H460 > 100 µM | NCI-H23 > 100 µM | A498 > 100 µM | HL-60 > 100 µM | RXF 393 > 100 µM | MOLT-4 > 100 µM | IGROV-1 > 100 µM | NCI-H226 > 100 µM | HOP-62 > 100 µM | KM12 > 100 µM | SK-MEL-28 > 100 µM

CC(C)NC(C)C(C)c1ccccc1 (configuration not stated)
inactive: CAKI-1 > 100 µM | SF-295 > 100 µM | NCI-H522 > 100 µM | NCI-H460 > 100 µM | TK-10 > 100 µM | LOX IMVI > 100 µM | NCI-H23 > 100 µM | A498 > 100 µM | RXF 393 > 100 µM | MOLT-4 > 100 µM | IGROV-1 > 100 µM | NCI-H226 > 100 µM | HOP-62 > 100 µM | UACC-62 > 100 µM | KM12 > 100 µM | SK-MEL-28 > 100 µM | HCC 2998 > 100 µM

CN1CCN(c2nc(N)c(Br)c(Cl)n2)CC1
inactive: CAKI-1 > 100 µM | SF-295 > 100 µM | NCI-H522 > 100 µM | NCI-H460 > 100 µM | TK-10 > 100 µM | LOX IMVI > 100 µM | NCI-H23 > 100 µM | HL-60 > 100 µM | RXF 393 > 100 µM | MOLT-4 > 100 µM | IGROV-1 > 100 µM | HOP-62 > 100 µM | UACC-62 > 100 µM | KM12 > 100 µM | SK-MEL-28 > 100 µM | HCC 2998 > 100 µM

C#Cc1ccccc1N1C(=O)C=CC1=O
inactive: CAKI-1 > 100 µM | SF-295 > 100 µM | NCI-H522 > 100 µM | NCI-H460 > 100 µM | TK-10 > 100 µM | NCI-H23 > 100 µM | A498 > 100 µM | HL-60 > 100 µM | MOLT-4 > 100 µM | IGROV-1 > 100 µM | NCI-H226 > 100 µM | HOP-62 > 100 µM | UACC-62 > 100 µM | SK-MEL-28 > 100 µM

Cc1ccc(C2=NO[C@@H]3C(=O)N(c4ccc(Cc5ccc(N6C(=O)[C@H]7C(c8ccc(C)cc8)=NO[C@H]7C6=O)cc5)cc4)C(=O)[C@H]23)cc1
inactive: CAKI-1 > 100 µM | SF-295 > 100 µM | NCI-H460 > 100 µM | TK-10 > 100 µM | LOX IMVI > 100 µM | NCI-H23 > 100 µM | A498 > 100 µM | HL-60 > 100 µM | RXF 393 > 100 µM | MOLT-4 > 10 µM | IGROV-1 > 100 µM | NCI-H226 > 100 µM | HOP-62 > 100 µM | UACC-62 > 100 µM | KM12 > 100 µM | SK-MEL-28 > 100 µM | HCC 2998 > 100 µM

Cc1cccc(C)c1N1C(=O)C(=O)C(c2nc3ccccc3s2)/C(=N\N)C1=O (configuration not stated)
inactive: CAKI-1 > 100 µM | SF-295 > 100 µM | NCI-H522 39.4 µM | NCI-H460 > 100 µM | TK-10 > 100 µM | LOX IMVI > 100 µM | NCI-H23 > 100 µM | A498 > 100 µM | HL-60 36.3 µM | MOLT-4 30.3 µM | IGROV-1 > 100 µM | NCI-H226 > 100 µM | HOP-62 > 100 µM | UACC-62 77.4 µM | KM12 52 µM | SK-MEL-28 > 100 µM | HCC 2998 > 100 µM

CC(C)C(=O)N[C@@H](C)C(=O)N(Cc1ccc2ccccc2c1)N=O
inactive: CAKI-1 40.5 µM | SF-295 48.6 µM | NCI-H460 82 µM | TK-10 > 100 µM | LOX IMVI 46 µM | A498 58.2 µM | MOLT-4 39.4 µM | IGROV-1 95.9 µM | HOP-62 > 100 µM | UACC-62 48 µM | KM12 > 10 µM | SK-MEL-28 > 100 µM | HCC 2998 > 100 µM

CCCC(=O)Nc1ccc(O)c2c1C1CCCCCC21 (configuration not stated)
inactive: SF-295 50.2 µM | NCI-H522 75.5 µM | NCI-H460 > 100 µM | TK-10 > 100 µM | LOX IMVI > 100 µM | NCI-H23 > 100 µM | HL-60 > 100 µM | RXF 393 39.1 µM | MOLT-4 56.9 µM | NCI-H226 > 100 µM | HOP-62 > 100 µM | UACC-62 64 µM | KM12 96.4 µM | SK-MEL-28 > 100 µM

COc1ccc2c(c1)Cc1c-2[nH]c2cc3c(cc2c1=O)OCO3
inactive: CAKI-1 32.1 µM | SF-295 16.3 µM | NCI-H522 10.8 µM | NCI-H460 10.3 µM | TK-10 9.31 µM | LOX IMVI 14.5 µM | NCI-H23 16.3 µM | HL-60 6.12 µM | RXF 393 4.01 µM | MOLT-4 8.81 µM | IGROV-1 16.9 µM | NCI-H226 29.9 µM | HOP-62 17.1 µM | UACC-62 10.4 µM | KM12 9.48 µM | SK-MEL-28 15.8 µM | HCC 2998 11.6 µM

CC(=O)C1=C(O)C2C3c4c[nH]c5cccc(c45)CC3C(C)(C)N2C1=O (configuration not stated)
inactive: CAKI-1 > 100 µM | SF-295 24.3 µM | NCI-H522 11.9 µM | NCI-H460 10.8 µM | TK-10 46.5 µM | LOX IMVI 16.2 µM | NCI-H23 11.6 µM | A498 20.1 µM | HL-60 3.05 µM | MOLT-4 15.6 µM | IGROV-1 > 100 µM | NCI-H226 17.3 µM | HOP-62 6.46 µM | UACC-62 44.1 µM | KM12 40.5 µM | SK-MEL-28 21.6 µM | HCC 2998 23.1 µM

Cc1ccccc1Cn1nc2ccccc2cc1=O
inactive: CAKI-1 > 100 µM | SF-295 > 100 µM | NCI-H460 > 100 µM | TK-10 > 100 µM | LOX IMVI > 100 µM | NCI-H23 > 100 µM | A498 > 100 µM | IGROV-1 > 100 µM | NCI-H226 > 100 µM | HOP-62 > 100 µM | UACC-62 > 100 µM | KM12 > 100 µM | SK-MEL-28 > 100 µM | HCC 2998 > 100 µM

C/C(=C1/CCCC2(N=NCC2c2ccccc2)C1=O)c1ccccc1 (configuration not stated)
inactive: SF-295 30.9 µM | NCI-H522 14.8 µM | NCI-H460 26.3 µM | TK-10 42.7 µM | LOX IMVI 32.8 µM | NCI-H23 16.6 µM | HL-60 8.95 µM | RXF 393 25.4 µM | MOLT-4 14.4 µM | IGROV-1 42.4 µM | NCI-H226 16 µM | UACC-62 16.3 µM | KM12 15.9 µM | SK-MEL-28 26.9 µM | HCC 2998 38.2 µM

COc1ccc(C(=O)O/N=C2\CCCC\C2=C/c2ccccc2)cc1
inactive: CAKI-1 81.5 µM | NCI-H460 > 100 µM | TK-10 68.7 µM | LOX IMVI > 100 µM | NCI-H23 15.4 µM | A498 74.8 µM | HL-60 > 100 µM | MOLT-4 > 100 µM | IGROV-1 > 100 µM | HOP-62 45.3 µM | UACC-62 > 100 µM | SK-MEL-28 > 100 µM | HCC 2998 > 100 µM

CCOC(=O)C(OCC1CC=CCC1)Sc1ccccc1 (configuration not stated)
inactive: CAKI-1 > 100 µM | SF-295 > 100 µM | NCI-H522 > 100 µM | NCI-H460 > 100 µM | TK-10 > 100 µM | LOX IMVI > 100 µM | NCI-H23 > 100 µM | A498 > 100 µM | HL-60 > 100 µM | IGROV-1 > 100 µM | HOP-62 > 100 µM | UACC-62 > 100 µM | KM12 > 100 µM | SK-MEL-28 > 100 µM | HCC 2998 > 100 µM

COC1[C@H](NC(=O)OC(C)(C)C)C(=O)N1Cc1ccccc1 (some centres not stated)
inactive: SF-295 > 100 µM | NCI-H460 > 100 µM | TK-10 > 100 µM | LOX IMVI > 100 µM | NCI-H23 > 100 µM | A498 9.53 µM | HL-60 > 100 µM | RXF 393 > 100 µM | MOLT-4 > 100 µM | IGROV-1 > 100 µM | NCI-H226 > 100 µM | HOP-62 > 100 µM | UACC-62 > 100 µM | KM12 > 100 µM | SK-MEL-28 > 100 µM | HCC 2998 > 100 µM
